| melting point | Compound |
| --- | --- |
| 207 to 208 °C | Cn1nc(-c2ccc(F)cc2)c(-c2ccncc2)c1NC(=O)Cc1cc(F)ccc1F [Example 35, 5-(2,5-difluorophenylacetylamino)-3-(4-fluorophenyl)-1-methyl-4-(4-pyridyl)pyrazole] |
| 216.9 to 224.6 °C | Cn1nc(-c2ccc(F)cc2)c(-c2ccncc2)c1NC(=O)Cc1c(F)cccc1Cl [Example 36, 5-(2-Chloro-6-fluorophenylacetylamino)-3-(4-fluorophenyl)-1-methyl-4-(4-pyridyl)pyrazole] |
| 205.1 to 207 °C | Cn1nc(-c2ccc(F)cc2)c(-c2ccncc2)c1NC(=O)Cc1ccc(Cl)c(Cl)c1 [Example 37, 5-(3,4-Dichlorophenylacetylamino)-3-(4-fluorophenyl)-1-methyl-4-(4-pyridyl)pyrazole] |
| 252.5 to 256.7 °C | Cn1nc(-c2ccc(F)cc2)c(-c2ccncc2)c1NC(=O)Cc1c(Cl)cccc1Cl [Example 38, 5-(2,6-Dichlorophenylacetylamino)-3-(4-fluorophenyl)-1-methyl-4-(4-pyridyl)pyrazole] |
| 229 to 232.7 °C | Cn1nc(-c2ccc(F)cc2)c(-c2ccncc2)c1NC(=O)Cc1ccc(F)cc1Cl [Example 39, 5-(2-Chloro-4-fluorophenylacetylamino)-3-(4-fluorophenyl)-1-methyl-4-(4-pyridyl)pyrazole] |
| 225.5 to 228.3 °C | Cn1nc(-c2ccc(F)cc2)c(-c2ccncc2)c1NC(=O)Cc1ccc(F)cc1F [Example 40, 5-(2,4-Difluorophenylacetylamino)-3-(4-fluorophenyl)-1-methyl-4-(4-pyridyl)pyrazole] |
| 224.3 to 225.4 °C | Cn1nc(-c2ccc(F)cc2)c(-c2ccncc2)c1NC(=O)Cc1ccc(Cl)cc1Cl [Example 41, 5-(2,4-Dichlorophenylacetylamino)-3-(4-fluorophenyl)-1-methyl-4-(4-pyridyl)pyrazole] |
| 113.6 to 116.5 °C | Cn1nc(-c2ccc(F)cc2)c(-c2ccncc2)c1NC(=O)Cc1ccc2c(c1)OCO2 [Example 43, 3-(4-Fluorophenyl)-1-methyl-5-(3,4-methylenedioxyphenylacetylamino)-4-(4-pyridyl)pyrazole] |
| 239.9 to 242.5 °C | Cn1nc(-c2ccc(F)cc2)c(-c2ccncc2)c1NC(=O)Cc1c(F)cccc1F [Example 46, 5-(2,6-Difluorophenylacetylamino)-3-(4-fluorophenyl)-1-methyl-4-(4-pyridyl)pyrazole] |
| 208.5 to 210.2 °C | Cn1nc(-c2ccc(F)cc2)c(-c2ccncc2)c1NC(=O)Cc1cc(F)cc(F)c1 [Example 48, 5-(3,5-Difluorophenylacetylamino)-3-(4-fluorophenyl)-1-methyl-4-(4-pyridyl)pyrazole] |
| 181.3 to 182.5 °C | Cn1nc(-c2ccc(F)cc2)c(-c2ccncc2)c1NC(=O)Cc1cccc(F)c1F [Example 49, 5-(2,3-Difluorophenylacetylamno)-3-(4-fluorophenyl)-1-methyl-4-(4-pyridyl)pyrazole] |
| 211.2 to 212.4 °C | Cc1cc(C)cc(CC(=O)Nc2c(-c3ccncc3)c(-c3ccc(F)cc3)nn2C)c1 [Example 50, 5-(3,5-Dimethylphenylacetylamino)-3-(4-fluorophenyl)-1-methyl-4-(4-pyridyl)pyrazole] |

Second part, the compound before the results:

| Compound | melting point |
| --- | --- |
| CCCCC(=O)Nc1n[nH]c(-c2ccc(F)cc2)c1-c1ccncc1 [Example 20, 5-(4-Fluorophenyl)-4-(4-pyridyl)-3-valerylaminopyrazole] | 273.7 to 275.8 °C |
| CC(C)(C)C(=O)Nc1n[nH]c(-c2ccc(F)cc2)c1-c1ccncc1 [Example 21, 5-(4-Fluorophenyl)-4-(4-pyridyl)-3-pivaloylaminopyrazole] | 217.9 to 220.6 °C |
| O=C(Nc1n[nH]c(-c2ccc(F)cc2)c1-c1ccncc1)C(F)(F)F [Example 22, 5-(4-fluorophenyl)-4-(4-pyridyl)-3-trifluoroacetylaminopyrazole] | 260.1 to 265.2 °C |
| O=C(CC1CCCCC1)Nc1n[nH]c(-c2ccc(F)cc2)c1-c1ccncc1 [Example 23, 3-cyclohexylacetylamino-5-(4-fluorophenyl)-4-(4-pyridyl)pyrazole] | 296.3 to 299.9 °C |
| O=C(Cc1ccccc1Cl)Nc1n[nH]c(-c2ccc(F)cc2)c1-c1ccncc1 [Example 24, 3-(2-chlorophenylacetylamino)-5-(4-fluorophenyl)-4-(4-pyridyl)pyrazole] | 238.8 to 240.1 °C |
| O=C(Cc1cccc(Cl)c1)Nc1n[nH]c(-c2ccc(F)cc2)c1-c1ccncc1 [Example 25, 3-(3-Chlorophenylacetylamino)-5-(4-fluorophenyl)-4-(4-pyridyl)pyrazole] | 249.7 to 250.8 °C |
| O=C(Cc1ccc(F)cc1)Nc1n[nH]c(-c2ccc(F)cc2)c1-c1ccncc1 [Example 26, 5-(4-Fluorophenyl)-3-(4-fluorophenylacetylamino)-4-(4-pyridyl)pyrazole] | 259.4 to 261.2 °C |
| O=C(Cc1ccc([N+](=O)[O-])cc1)Nc1n[nH]c(-c2ccc(F)cc2)c1-c1ccncc1 [Example 27, 5-(4-Fluorophenyl)-3-(4-nitrophenylacetylamino)-4-(4-pyridyl)pyrazole] | 299.3 to 302.3 °C |
| O=C(Cc1ccsc1)Nc1n[nH]c(-c2ccc(F)cc2)c1-c1ccncc1 [Example 28, 5-(4-Fluorophenyl)-4-(4-pyridyl)-3-(3-thienylacetylamino)pyrazole] | 279.6 to 282.9 °C (dec.) |
| O=C(Cc1ccncc1)Nc1n[nH]c(-c2ccc(F)cc2)c1-c1ccncc1 [Example 29, 5-(4-Fluorophenyl)-4-(4-pyridyl)-3-(4-pyridylacetylamino)pyrazole] | 248.3 to 251.8 °C (dec.) |
| O=C(Cc1c(F)c(F)c(F)c(F)c1F)Nc1n[nH]c(-c2ccc(F)cc2)c1-c1ccncc1 [Example 31, 5-(4-Fluorophenyl)-3-(2,3,4,5,6-pentafluorophenylacetylamino)-4-(4-pyridyl)pyrazole] | ≥ 325 °C |
| O=C(Nc1n[nH]c(-c2ccc(F)cc2)c1-c1ccncc1)C(c1ccccc1)c1ccccc1 [Example 32, 3-Diphenylacetylamino-5-(4-fluorophenyl)-4-(4-pyridyl)pyrazole] | 266.5 to 269.2 °C |
| CC(C)(C(=O)Nc1n[nH]c(-c2ccc(F)cc2)c1-c1ccncc1)c1ccccc1 [Example 33, 3-(α,α-Dimethylphenylacetylamino)-5-(4-fluorophenyl)-4-(4-pyridyl)pyrazole] | 239.1 to 241.5 °C |
| COc1ccc(CC(=O)Nc2c(-c3ccncc3)c(-c3ccc(F)cc3)nn2C)cc1OC [Example 42, 5-(3,4-Dimethoxyphenylacetylamino)-3-(4-fluorophenyl)-1-methyl-4-(4-pyridyl)pyrazole] | 128.1 to 129.6 °C |
| COc1ccc(CC(=O)Nc2c(-c3ccncc3)c(-c3ccc(F)cc3)nn2C)cc1OC [Example 44, 5-(3,4-Dimethoxyphenylacetylamino)-3-(4-fluorophenyl)-1-methyl-4-(4-pyridyl)pyrazole] | 174.4 to 180.3 °C |
| Cn1nc(-c2ccc(F)cc2)c(-c2ccncc2)c1NC(=O)Cc1cc(C(F)(F)F)cc(C(F)(F)F)c1 [Example 45, 5-(3,5-Ditrifluoromethylphenylacetylamino)-3-(4-fluorophenyl)-1-methyl-4-(4-pyridyl)pyrazole] | 228.3 to 230.6 °C |

— patent US6511997B1, “Aminopyrazole derivatives” (Teikoku Hormone Mfg. Co., Ltd., priority 1998, dated 2003)
